# Laboratory results from PubChem BioAssay AID1963968 (Molecular Pharmacology Branch, DTP, NCI, 2024).
# Tested on: 945468-187-T-J3-PDC spheroids with HUVEC/MSC, viability
# Assay: Anticancer human tumor 945468-187-T-J3-PDC patient-derived rectal carcinoma cell line growth inhibition [PI3K]
# Conditions: for viability, T/C: stronger effect = lower value
# Method in brief: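 Stroma-containing spheroids: tumor line, pooled-donor HUVEC, hMSC. Treatments: targeted agents with PI3K inhibitors. Dosing: clinically relevant, half-log spacing, 10 microM ceiling without known Cmax. Read-out: cell viability.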
# [1] = curve of first compound, second compound 0.00316 µM
# [2] = curve of first compound, second compound 0.01 µM
# [3] = curve of first compound, second compound 0.0316 µM
# [4] = curve of first compound, second compound 0.1 µM
# [5] = curve of first compound, second compound 0.316 µM
# [6] = curve of first compound, second compound 1 µM
# [7] = second compound 0.00316 µM, first compound 0.0316 µM
# [8] = second compound 0.00316 µM, first compound 0.1 µM
# [9] = second compound 0.01 µM, first compound 0.0316 µM
# [10] = second compound 0.01 µM, first compound 0.1 µM
# [11] = second compound 0.0316 µM, first compound 0.00316 µM
# [12] = second compound 0.0316 µM, first compound 0.01 µM
# [13] = second compound 0.0316 µM, first compound 0.0316 µM
# [14] = second compound 0.0316 µM, first compound 0.1 µM
# [15] = second compound 0.1 µM, first compound 0.00316 µM
# [16] = second compound 0.1 µM, first compound 0.01 µM
# [17] = second compound 0.1 µM, first compound 0.0316 µM
# [18] = second compound 0.1 µM, first compound 0.1 µM
# [19] = second compound 0.316 µM, first compound 0.00316 µM
# [20] = second compound 0.316 µM, first compound 0.01 µM
# [21] = second compound 0.316 µM, first compound 0.0316 µM
# [22] = second compound 0.316 µM, first compound 0.1 µM
# [23] = second compound 1 µM, first compound 0.00316 µM
# [24] = second compound 1 µM, first compound 0.01 µM
# [25] = second compound 1 µM, first compound 0.0316 µM
# [26] = second compound 1 µM, first compound 0.1 µM
# [27] = second compound 0.00316 µM, first compound 0.316 µM
# [28] = second compound 0.00316 µM, first compound 1 µM
# [29] = second compound 0.00316 µM, first compound 3.16 µM
# [30] = second compound 0.00316 µM, first compound 10 µM
# [31] = second compound 0.01 µM, first compound 0.316 µM
# [32] = second compound 0.01 µM, first compound 1 µM
# [33] = second compound 0.01 µM, first compound 3.16 µM
# [34] = second compound 0.01 µM, first compound 10 µM
# [35] = second compound 0.0316 µM, first compound 0.316 µM
# [36] = second compound 0.0316 µM, first compound 1 µM
# [37] = second compound 0.0316 µM, first compound 3.16 µM
# [38] = second compound 0.0316 µM, first compound 10 µM
# [39] = second compound 0.1 µM, first compound 0.316 µM
# [40] = second compound 0.1 µM, first compound 1 µM
# [41] = second compound 0.1 µM, first compound 3.16 µM
# [42] = second compound 0.1 µM, first compound 10 µM
# [43] = second compound 0.316 µM, first compound 0.316 µM
# [44] = second compound 0.316 µM, first compound 1 µM
# [45] = second compound 0.316 µM, first compound 3.16 µM
# [46] = second compound 0.316 µM, first compound 10 µM
# [47] = second compound 1 µM, first compound 0.316 µM
# [48] = second compound 1 µM, first compound 1 µM
# [49] = second compound 1 µM, first compound 3.16 µM
# [50] = second compound 1 µM, first compound 10 µM
# 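Note: spheroids exposed to agents for 7 days before viability read.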
# 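Throughout, for viability, T/C: 100% = DMSO vehicle control viability.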
smiles,measurement,setting,value
CC(C)n1nc(-c2ccc3oc(N)nc3c2)c2c(N)ncnc21 + CC(Nc1ccc2c(c1)OCCn1cc(N3C(=O)OCC3C(F)F)nc1-2)C(N)=O,IC50,[1],> 100 nM
same,IC50,[2],> 100 nM
same,IC50,[3],93.1 nM
same,IC50,[4],73.8 nM
same,IC50,[5],27.4 nM
same,IC50,[6],5.19 nM
same,"viability, T/C","second compound 0.00316 µM, first compound 0.000316 µM",111%
same,"viability, T/C","second compound 0.00316 µM, first compound 0.001 µM",104%
same,"viability, T/C","second compound 0.00316 µM, first compound 0.00316 µM",109%
same,"viability, T/C","second compound 0.00316 µM, first compound 0.01 µM",116%
same,"viability, T/C",[7],118%
same,"viability, T/C",[8],71%
same,"viability, T/C","second compound 0.01 µM, first compound 0.000316 µM",102%
same,"viability, T/C","second compound 0.01 µM, first compound 0.001 µM",105%
same,"viability, T/C","second compound 0.01 µM, first compound 0.00316 µM",98.1%
same,"viability, T/C","second compound 0.01 µM, first compound 0.01 µM",111%
same,"viability, T/C",[9],123%
same,"viability, T/C",[10],63.4%
same,"viability, T/C","second compound 0.0316 µM, first compound 0.000316 µM",99.1%
same,"viability, T/C","second compound 0.0316 µM, first compound 0.001 µM",94.5%
same,"viability, T/C",[11],129%
same,"viability, T/C",[12],110%
same,"viability, T/C",[13],114%
same,"viability, T/C",[14],46%
same,"viability, T/C","second compound 0.1 µM, first compound 0.000316 µM",102%
same,"viability, T/C","second compound 0.1 µM, first compound 0.001 µM",107%
same,"viability, T/C",[15],104%
same,"viability, T/C",[16],126%
same,"viability, T/C",[17],87.2%
same,"viability, T/C",[18],36.7%
same,"viability, T/C","second compound 0.316 µM, first compound 0.000316 µM",103%
same,"viability, T/C","second compound 0.316 µM, first compound 0.001 µM",104%
same,"viability, T/C",[19],91%
same,"viability, T/C",[20],77.8%
same,"viability, T/C",[21],45.2%
same,"viability, T/C",[22],24.9%
same,"viability, T/C","second compound 1 µM, first compound 0.000316 µM",65.7%
same,"viability, T/C","second compound 1 µM, first compound 0.001 µM",64.9%
same,"viability, T/C",[23],60.3%
same,"viability, T/C",[24],36.3%
same,"viability, T/C",[25],34.9%
same,"viability, T/C",[26],29.8%
CC1(C)CCC(Nc2ncc(C(F)(F)F)c(-c3c[nH]c4c(P(C)(C)=O)c(C#N)ccc34)n2)CN1 (stereo unspecified) + CC(Nc1ccc2c(c1)OCCn1cc(N3C(=O)OCC3C(F)F)nc1-2)C(N)=O,IC50,[1],5650 nM
same,IC50,[2],5690 nM
same,IC50,[3],5240 nM
same,IC50,[4],5300 nM
same,IC50,[5],3770 nM
same,IC50,[6],1990 nM
same,"viability, T/C",[7],83.5%
same,"viability, T/C",[8],85.8%
same,"viability, T/C",[27],69.1%
same,"viability, T/C",[28],85.8%
same,"viability, T/C",[29],86.1%
same,"viability, T/C",[30],18.5%
same,"viability, T/C",[9],83.8%
same,"viability, T/C",[10],83.5%
same,"viability, T/C",[31],72.3%
same,"viability, T/C",[32],94.7%
same,"viability, T/C",[33],96.6%
same,"viability, T/C",[34],15.1%
same,"viability, T/C",[13],82.9%
same,"viability, T/C",[14],77.4%
same,"viability, T/C",[35],71.2%
same,"viability, T/C",[36],79.8%
same,"viability, T/C",[37],87.3%
same,"viability, T/C",[38],11.8%
same,"viability, T/C",[17],86.1%
same,"viability, T/C",[18],88.6%
same,"viability, T/C",[39],70.8%
same,"viability, T/C",[40],77.6%
same,"viability, T/C",[41],82%
same,"viability, T/C",[42],11.9%
same,"viability, T/C",[21],82.4%
same,"viability, T/C",[22],79.2%
same,"viability, T/C",[43],80.7%
same,"viability, T/C",[44],61.4%
same,"viability, T/C",[45],63.2%
same,"viability, T/C",[46],8.03%
same,"viability, T/C",[25],80.7%
same,"viability, T/C",[26],62.4%
same,"viability, T/C",[47],62%
same,"viability, T/C",[48],51.6%
same,"viability, T/C",[49],52.2%
same,"viability, T/C",[50],4.39%
CC1(C)CCC(Nc2ncc(C(F)(F)F)c(-c3c[nH]c4c(P(C)(C)=O)c(C#N)ccc34)n2)CN1 (stereo unspecified),"viability, T/C",compound 0.0316 µM,79.6% [middle of 4 runs]
same,"viability, T/C",compound 10 µM,12.7% [middle of 4 runs]
same,IC50,curve of compound,5.16 µM [middle of 4 runs]
CC(C)NCC(C(=O)N1CCN(c2ncnc3c2C(C)CC3O)CC1)c1ccc(Cl)cc1 (stereo unspecified) + CC(Nc1ccc2c(c1)OCCn1cc(N3C(=O)OCC3C(F)F)nc1-2)C(N)=O,IC50,[1],8440 nM
same,IC50,[2],> 10000 nM
same,IC50,[3],6850 nM
same,IC50,[4],2810 nM
same,IC50,[5],910 nM
same,IC50,[6],1380 nM
same,"viability, T/C",[7],93.8%
same,"viability, T/C",[8],93.9%
same,"viability, T/C",[27],103%
same,"viability, T/C",[28],91.6%
same,"viability, T/C",[29],58.6%
same,"viability, T/C",[30],48.5%
same,"viability, T/C",[9],111%
same,"viability, T/C",[10],103%
same,"viability, T/C",[31],104%
same,"viability, T/C",[32],96.7%
same,"viability, T/C",[33],54.9%
same,"viability, T/C",[34],59.2%
same,"viability, T/C",[13],93.7%
same,"viability, T/C",[14],91.8%
same,"viability, T/C",[35],94.1%
same,"viability, T/C",[36],90.9%
same,"viability, T/C",[37],55.6%
same,"viability, T/C",[38],47.3%
same,"viability, T/C",[17],101%
same,"viability, T/C",[18],93.4%
same,"viability, T/C",[39],87%
same,"viability, T/C",[40],76.4%
same,"viability, T/C",[41],45%
same,"viability, T/C",[42],31.5%
same,"viability, T/C",[21],101%
same,"viability, T/C",[22],89.3%
same,"viability, T/C",[43],62.7%
same,"viability, T/C",[44],49.6%
same,"viability, T/C",[45],39%
same,"viability, T/C",[46],29.3%
same,"viability, T/C",[25],62.8%
same,"viability, T/C",[26],70.4%
same,"viability, T/C",[47],57.8%
same,"viability, T/C",[48],57.3%
same,"viability, T/C",[49],34.1%
same,"viability, T/C",[50],26.7%
CCN1CCN(Cc2ccc(Nc3ncc(F)c(-c4cc(F)c5nc(C)n(C(C)C)c5c4)n3)nc2)CC1 + CC(Nc1ncnc2nc[nH]c12)c1cc2cccc(Cl)c2c(=O)n1-c1ccccc1,IC50,[3],> 1000 nM
same,IC50,[4],> 1000 nM
same,IC50,[5],> 1000 nM
same,IC50,[6],> 1000 nM
same,IC50,"curve of first compound, second compound 3.16 µM",> 1000 nM
same,IC50,"curve of first compound, second compound 10 µM",762 nM
same,"viability, T/C",[11],88.7%
same,"viability, T/C",[12],110%
same,"viability, T/C",[13],107%
same,"viability, T/C",[14],94%
same,"viability, T/C",[35],102%
same,"viability, T/C",[36],79.2%
same,"viability, T/C",[15],91.5%
same,"viability, T/C",[16],85.3%
same,"viability, T/C",[17],99%
same,"viability, T/C",[18],99.5%
same,"viability, T/C",[39],102%
same,"viability, T/C",[40],72%
same,"viability, T/C",[19],97.3%
same,"viability, T/C",[20],91%
same,"viability, T/C",[21],89.8%
same,"viability, T/C",[22],113%
same,"viability, T/C",[43],106%
same,"viability, T/C",[44],72.8%
same,"viability, T/C",[23],87.8%
same,"viability, T/C",[24],95.9%
same,"viability, T/C",[25],91.3%
same,"viability, T/C",[26],103%
same,"viability, T/C",[47],93.8%
same,"viability, T/C",[48],69.2%
same,"viability, T/C","second compound 3.16 µM, first compound 0.00316 µM",93.9%
same,"viability, T/C","second compound 3.16 µM, first compound 0.01 µM",101%
same,"viability, T/C","second compound 3.16 µM, first compound 0.0316 µM",103%
same,"viability, T/C","second compound 3.16 µM, first compound 0.1 µM",95.1%
same,"viability, T/C","second compound 3.16 µM, first compound 0.316 µM",93%
same,"viability, T/C","second compound 3.16 µM, first compound 1 µM",52.5%
same,"viability, T/C","second compound 10 µM, first compound 0.00316 µM",91.5%
same,"viability, T/C","second compound 10 µM, first compound 0.01 µM",89.5%
same,"viability, T/C","second compound 10 µM, first compound 0.0316 µM",91%
same,"viability, T/C","second compound 10 µM, first compound 0.1 µM",106%
same,"viability, T/C","second compound 10 µM, first compound 0.316 µM",90%
same,"viability, T/C","second compound 10 µM, first compound 1 µM",37.1%
